Laboratory results: ChEMBL document CHEMBL1147807, “Identification of 2-acylaminothiophene-3-carboxamides as potent inhibitors of FLT3” (Bioorg Med Chem Lett, 2006)

How the values were obtained:
[1] = target: T1, Receptor-type tyrosine-protein kinase FLT3 (Homo sapiens, UniProt P36888); assay: Inhibition of FLT3
T1 sequence (P36888 whole entry): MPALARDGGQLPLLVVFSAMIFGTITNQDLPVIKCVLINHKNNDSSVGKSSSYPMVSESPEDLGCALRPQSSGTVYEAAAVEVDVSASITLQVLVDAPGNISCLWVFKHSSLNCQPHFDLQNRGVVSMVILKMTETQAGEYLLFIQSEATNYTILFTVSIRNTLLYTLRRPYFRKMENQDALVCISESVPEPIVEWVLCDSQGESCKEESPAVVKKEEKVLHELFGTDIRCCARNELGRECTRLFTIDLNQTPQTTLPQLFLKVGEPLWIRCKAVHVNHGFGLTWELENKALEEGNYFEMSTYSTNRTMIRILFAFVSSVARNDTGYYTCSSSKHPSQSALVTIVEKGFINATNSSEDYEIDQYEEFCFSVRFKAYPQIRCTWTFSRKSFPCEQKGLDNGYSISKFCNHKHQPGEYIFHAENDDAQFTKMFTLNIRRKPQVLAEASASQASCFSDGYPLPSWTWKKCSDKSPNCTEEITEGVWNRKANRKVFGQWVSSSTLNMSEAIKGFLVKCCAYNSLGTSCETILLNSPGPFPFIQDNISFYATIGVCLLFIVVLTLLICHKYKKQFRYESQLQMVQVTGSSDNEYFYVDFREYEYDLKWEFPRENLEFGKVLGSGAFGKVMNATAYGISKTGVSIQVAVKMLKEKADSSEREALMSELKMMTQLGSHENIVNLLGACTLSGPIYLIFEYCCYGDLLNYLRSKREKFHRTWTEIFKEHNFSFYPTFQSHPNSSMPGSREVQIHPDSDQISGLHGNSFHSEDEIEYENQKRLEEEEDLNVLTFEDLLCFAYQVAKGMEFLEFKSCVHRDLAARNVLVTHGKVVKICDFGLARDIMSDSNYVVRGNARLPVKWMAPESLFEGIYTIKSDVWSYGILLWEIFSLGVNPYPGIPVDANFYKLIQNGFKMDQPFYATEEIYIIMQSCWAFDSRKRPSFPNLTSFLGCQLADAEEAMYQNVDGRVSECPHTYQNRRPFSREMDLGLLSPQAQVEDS

[2] = test system: MV4-11; assay: Antiproliferative activity against human MV4-11 cells

| IC50 [1] [µM] | IC50 [2] [µM] | SMILES |
| --- | --- | --- |
| > 10 | – | NC(=O)c1c(NC(=O)c2ccc(Oc3ccccc3)cc2)sc2c1CCCC2 |
| – | 1.5 | NC(=O)c1c(NC(=O)c2ccco2)sc2c1CCCC2 |
| > 10 | – | COc1cc(C(=O)Nc2sc3c(c2C(N)=O)CCCC3)cc(OC)c1OC |
| > 10 | 3.8 | NC(=O)c1c(NC(=O)CSc2ccccc2)sc2c1CCCC2 |
| – | 1.5 | COc1cccc(C(=O)Nc2sc3c(c2C(N)=O)CCCC3)c1 |
| – | 2.2 | NC(=O)c1c(NC(=O)c2cccc(Cl)c2)sc2c1CCCC2 |
| – | 1.8 | CC(=O)c1ccc(C(=O)Nc2sc3c(c2C(N)=O)CCCC3)cc1 |
| – | > 10 | COc1ccc(CCC(=O)Nc2sc3c(c2C(N)=O)CCCC3)cc1 |
| > 10 | – | NC(=O)c1c(NC(=O)c2ccccc2Cl)sc2c1CCCC2 |
| – | 2 | COc1ccc(/C=C/C(=O)Nc2sc3c(c2C(N)=O)CCCC3)cc1OC |
| – | 0.33 | COc1ccc(C(=O)Nc2sc(C)c(C)c2C(N)=O)cc1OC |
| – | 2.4 | COc1ccc(C(=O)Nc2sccc2C(N)=O)cc1OC |
| – | 10 | Cc1ccc(/C=C/C(=O)Nc2sc3c(c2C(N)=O)CCCC3)o1 |
| – | 1.5 | NC(=O)c1c(NC(=O)c2ccc(Br)cc2)sc2c1CCCC2 |
| 2 | – | CC(=O)Nc1sc2c(c1C(N)=O)CCCC2 |
| – | 1.4 | NC(=O)c1c(NC(=O)c2ccc(Cl)cc2)sc2c1CCCC2 |
| > 10 | – | CC(C)C(=O)Nc1sc2c(c1C(N)=O)CCCC2 |
| > 10 | – | NC(=O)c1c(NC(=O)C2CCCCC2)sc2c1CCCC2 |
| 1.3 | 1.2 | NC(=O)c1c(NC(=O)C2CC2)sc2c1CCCC2 |
| > 100 | – | COc1ccc(C(=O)Nc2sc3c(c2C(N)=O)CCCCCC3)cc1OC |

| IC50 [1] [µM] | IC50 [2] [µM] | SMILES |
| --- | --- | --- |
| > 10 | – | NC(=O)c1c(NC(=O)c2ccc(-c3ccccc3)cc2)sc2c1CCCC2 |
| – | 0.89 | NC(=O)c1c(NC(=O)c2ccc3c(c2)OCO3)sc2c1CCCC2 |
| 0.36 | > 10 | NC(=O)c1c(NC(=O)c2ccccc2)sc2c1CCCC2 |
| – | 0.53 | NC(=O)c1c(NC(=O)/C=C/c2ccccc2)sc2c1CCCC2 |
| – | > 10 | NC(=O)c1c(NC(=O)Cc2ccccc2)sc2c1CCCC2 |
| 0.25 | 1.8 | COc1ccc(/C=C/C(=O)Nc2sc3c(c2C(N)=O)CCCC3)cc1 |
| – | 0.71 | Cc1ccc(C(=O)Nc2sc3c(c2C(N)=O)CCCC3)cc1C |
| – | 0.41 | COc1ccc(C(=O)Nc2sc3c(c2C(N)=O)CCC3)cc1OC |
| – | 1.6 | CC(C)(C)c1ccc(C(=O)Nc2sc3c(c2C(N)=O)CCCC3)cc1 |
| – | 0.35 | NC(=O)c1c(NC(=O)c2ccccn2)sc2c1CCCC2 |
| > 10 | – | COc1ccccc1C(=O)Nc1sc2c(c1C(N)=O)CCCC2 |
| – | 3.2 | Cc1cccc(C(=O)Nc2sc3c(c2C(N)=O)CCCC3)c1 |
| > 10 | – | NC(=O)c1c(NC(=O)COc2ccccc2)sc2c1CCCC2 |
| – | 2.7 | CC(C)c1ccc(/C=C/C(=O)Nc2sc3c(c2C(N)=O)CCCC3)cc1 |
| – | > 10 | COc1cc(OC)cc(C(=O)Nc2sc3c(c2C(N)=O)CCCC3)c1 |
| 0.11 | 2.1 | NC(=O)c1c(NC(=O)c2ccncc2)sc2c1CCCC2 |
| – | 1.3 | COc1ccc(C(=O)Nc2sc3c(c2C(N)=O)CCCC3)cc1 |
| – | 0.45 | Cc1ccc(C(=O)Nc2sc3c(c2C(N)=O)CCCC3)cc1 |
| – | 0.48 | NC(=O)c1c(NC(=O)/C=C/c2ccco2)sc2c1CCCC2 |
| 1.1 | 2 | NC(=O)c1c(NC(=O)c2cccnc2)sc2c1CCCC2 |
